This is an account of results in BindingDB's records for doi:10.1111/cbdd.12681 (Peking University, 2016).

The assay addresses T1, Dihydrofolate reductase (Homo sapiens, UniProt P00374).
T1 sequence (P00374 whole entry): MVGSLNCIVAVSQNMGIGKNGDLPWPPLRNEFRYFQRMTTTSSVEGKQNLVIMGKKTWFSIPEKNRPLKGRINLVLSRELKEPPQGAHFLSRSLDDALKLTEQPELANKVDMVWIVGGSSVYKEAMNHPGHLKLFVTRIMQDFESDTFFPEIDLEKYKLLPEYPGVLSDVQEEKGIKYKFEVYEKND
The assay can be described thus: DHFR Inhibition Assay. The following applies: pH 7.5. The protocol:
The recombinant human (rh) DHFR was purchased from Sigma-Aldrich (Shanghai, China). All rhDHFR enzymes were assayed spectrophotometrically in a solution containing 0.1 mM dihydrofolate, 0.3 mM NADPH and 100 mM KCl at pH 7.5 and 32 °C. The reaction was initiated with an amount of enzyme yielding a change in O.D. at 340 nm measured by microplate spectrophotometer.

Take `Nc1nc(N)c2c(n1)CCC(CCc1ccc(C(=O)N[C@@H](CCC(=O)O)C(=O)O)cc1)N2C=O` (stereo partly drawn) [4-[2-(2,4-Diamino-5-formyl-5,6,7,8-tetrahydropyrido[3,2-d]pyrimidin-6-yl)ethyl]benzoyl-L-glutamic acid (19a)]: half-maximal inhibition (IC50) required 41 nM. With `Nc1nc(O)c2c(n1)CCC(CCc1ccc(C(=O)N[C@@H](CCC(=O)O)C(=O)O)cc1)N2C=O` (stereo partly drawn) [4-[2-(2-Amino-4-hydroxy-5-formyl-5,6,7,8-tetrahydropyrido[3,2-d]pyrimidin-6-yl)ethyl] benzoyl-L-glutamic acid (22a)] the figure was 10100 nM; with `Nc1nc(O)c2c(n1)CCC(CCc1ccc(C(=O)N[C@@H](CCC(=O)O)C(=O)O)cc1)N2` (stereo partly drawn) [4-[2-(2-Diamino-4-hydroxy-5,6,7,8-tetrahydropyrido[3,2-d]pyrimidin-6-yl)ethyl]benzoyl-L-glutamic acid (18a)], 59 nM; with `Nc1nc(N)c2c(n1)CCC(CCc1ccc(C(=O)N[C@@H](CCC(=O)O)C(=O)O)cc1)N2CC(Br)CBr` (stereo partly drawn) [4-[2-[2,4-Diamino-5-(2,3-dibromopropyl)-5,6,7,8-tetrahydropyrido[3,2-d]pyrimidin-6-yl]ethyl]benzoyl-L-glutamic acid (21a)], 680 nM. With `Nc1nc(N)c2c(n1)CCC(CNc1ccc(C(=O)N[C@@H](CCC(=O)O)C(=O)O)cc1)N2C=O` (stereo partly drawn) [N-[4-[2-(2,4-Diamino-5-formyl-5,6,7,8-tetrahydropyrido[3,2-d]pyrimidin-6-yl)methyl]amino]benzoyl]-L-glutamic acid (24a)] the figure was 590 nM. With `C=CCN1c2c(O)nc(N)nc2CCC1CCc1ccc(C(=O)N[C@@H](CCC(=O)O)C(=O)O)cc1` (stereo partly drawn) [4-[2-(2-Amino-4-hydroxy-5-allyl-5,6,7,8-tetrahydropyrido[3,2-d]pyrimidin-6-yl)ethyl]benzoyl-L-glutamic acid (23a)] the figure was 298 nM; with `Nc1nc(N)c2c(n1)CCC(CCc1ccc(C(=O)N[C@@H](CCC(=O)O)C(=O)O)cc1)N2` (stereo partly drawn) [4-[2-(2,4-Diamino-5,6,7,8-tetrahydropyrido[3,2-d]pyrimidin-6-yl)ethyl]benzoyl-L-glutamic acid (17a)], 40 nM. Consider `C=CCN1c2c(N)nc(N)nc2CCC1CCc1ccc(C(=O)N[C@@H](CCC(=O)O)C(=O)O)cc1` (stereo partly drawn) [4-[2-(2,4-Diamino-5-allyl-5,6,7,8-tetrahydropyrido[3,2-d]pyrimidin-6-yl)ethyl]benzoyl-L-glutamic acid (20a)], for which the midpoint of inhibition, the IC50, lay at 706 nM.
